# In ChEMBL document CHEMBL5113515, “The Discovery of GSK3640254, a Next-Generation Inhibitor of HIV-1 Maturation” (J Med Chem, 2022):
# Assays:
# [1] = test system: Human immunodeficiency virus 1; assay: Binding affinity to HIV1 wild type Gag assessed as dissociation constant by measuring half life
# [2] = Solubility of the compound in FaSSIF at pH 6.5; assay type: physicochemical
# [3] = Solubility of the compound in FeSSIF at pH 5.0; assay type: physicochemical
# [4] = Aqueous solubility of compound at pH 1 to 8; assay type: physicochemical
# [5] = test system: Human immunodeficiency virus 1; assay: Antiviral activity against HIV1 wild type NL (4 to 3) infected in human MT2 cells measured after 4 to 5 days by dual-luciferase reporter assay; assay type: functional, organism-based; details: Human immunodeficiency virus 1, MT2
# [6] = test system: Human immunodeficiency virus 1; assay: Antiviral activity against HIV1 wild type NL (4 to 3) infected in human MT2 cells measured after 4 to 5 days in presence of human serum by dual-luciferase reporter assay; assay type: functional, organism-based; details: Human immunodeficiency virus 1, MT2
# [7] = test system: Human immunodeficiency virus 1; assay: Antiviral activity against HIV1 harbouring deltaV370/T371A mutant infected in human MT2 cells measured after 4 to 5 days by dual-luciferase reporter assay; assay type: functional, organism-based; details: Human immunodeficiency virus 1, MT2
# [8] = test system: Human immunodeficiency virus 1; assay: Antiviral activity against HIV1 harbouring V362I/V370A mutant infected in human MT2 cells measured after 4 to 5 days by dual-luciferase reporter assay; assay type: functional, organism-based; details: Human immunodeficiency virus 1, MT2
# [9] = test system: Human immunodeficiency virus 1; assay: Antiviral activity against HIV1 harbouring T332S/V362I/prR41G mutant infected in human MT2 cells measured after 4 to 5 days by dual-luciferase reporter assay; assay type: functional, organism-based; details: Human immunodeficiency virus 1, MT2
# [10] = test system: MT2; assay: Cytotoxicity in human MT2 cells assessed as reduction in cell viability; assay type: functional
# [11] = test system: Human immunodeficiency virus 1; assay: Antiviral activity against HIV1 wild type subtype B NL (4 to 3) harbouring V362/Q369/V370/T371 transfected in human HEK293T cells by dual-luciferase reporter assay; assay type: functional, organism-based; details: Human immunodeficiency virus 1, HEK-293T
# [12] = test system: Human immunodeficiency virus 1; assay: Antiviral activity against HIV1 wild type subtype B NL (4 to 3) transfected in human HEK293T cells by dual-luciferase reporter assay; assay type: functional, organism-based; details: Human immunodeficiency virus 1, HEK-293T
# [13] = test system: Human immunodeficiency virus 1; assay: Antiviral activity against HIV1 wild type subtype C NL (4 to 3) transfected in human HEK293T cells by dual-luciferase reporter assay; assay type: functional, organism-based; details: Human immunodeficiency virus 1, HEK-293T
# [14] = test system: Human immunodeficiency virus 1; assay: Antiviral activity against HIV1 NL (4 to 3) harbouring V362I mutant transfected in human HEK293T cells by dual-luciferase reporter assay; assay type: functional, organism-based; details: Human immunodeficiency virus 1, HEK-293T
# [15] = test system: Human immunodeficiency virus 1; assay: Antiviral activity against HIV1 NL (4 to 3) harbouring V362I/deltaV370 mutant transfected in human HEK293T cells by dual-luciferase reporter assay; assay type: functional, organism-based; details: Human immunodeficiency virus 1, HEK-293T
# [16] = Half life in overnight fasted Beagle dog at 1 mg/kg, iv; assay type: ADME, organism-based, Canis lupus familiaris; details: in vivo
# [17] = Volume of distribution at steady state in overnight fasted mouse at 5 mg/kg, po or 1 mg/kg, iv; assay type: ADME, organism-based; details: in vivo
# [18] = Volume of distribution at steady state in overnight fasted Sprague-Dawley rat at 5 mg/kg, po or 1 mg/kg, iv; assay type: ADME, organism-based; details: in vivo
# [19] = Volume of distribution at steady state in overnight fasted Beagle dog at 2 mg/kg, po or 1 mg/kg, iv; assay type: ADME, organism-based, Canis lupus familiaris; details: in vivo
# [20] = Volume of distribution at steady state in overnight fasted cynomolgus monkey at 2 mg/kg, po or 1 mg/kg, iv; assay type: ADME, organism-based, Macaca fascicularis; details: in vivo
# [21] = Oral bioavailability in overnight fasted Beagle dog using spray-dried dispersion at 2 mg/kg; assay type: ADME, organism-based, Canis lupus familiaris; details: in vivo
# [22] = Oral bioavailability in overnight fasted cynomolgus monkey using spray-dried dispersion at 2 mg/kg; assay type: ADME, organism-based, Macaca fascicularis; details: in vivo
# [23] = AUC(0 to t) in overnight fasted mouse at 5 mg/kg, po or 1 mg/kg, iv; assay type: ADME, organism-based; parameters: dose 5 mg/kg, route po; details: in vivo
# [24] = AUC(0 to t) in overnight fasted Sprague-Dawley rat at 5 mg/kg, po or 1 mg/kg, iv; assay type: ADME, organism-based; parameters: dose 5 mg/kg, route po; details: in vivo
# [25] = AUC(0 to t) in overnight fasted Beagle dog at 2 mg/kg, po or 1 mg/kg, iv; assay type: ADME, organism-based, Canis lupus familiaris; parameters: dose 2 mg/kg, route po; details: in vivo
# [26] = AUC(0 to t) in overnight fasted cynomolgus monkey at 2 mg/kg, po or 1 mg/kg, iv; assay type: ADME, organism-based, Macaca fascicularis; parameters: dose 2 mg/kg, route po; details: in vivo
# [27] = Cmax in overnight fasted Beagle dog at 2 mg/kg, po or 1 mg/kg, iv; assay type: ADME, organism-based, Canis lupus familiaris; parameters: dose 2 mg/kg, route po; details: in vivo
# [28] = Cmax in overnight fasted cynomolgus monkey at 2 mg/kg, po or 1 mg/kg, iv; assay type: ADME, organism-based, Macaca fascicularis; parameters: dose 2 mg/kg, route po; details: in vivo
# [29] = test system: Human immunodeficiency virus 1; assay: Antiviral activity against HIV1 virus harboring NL (4 to 3) harbouring […]/V370A mutant transfected in human HEK293T cells by luciferase reporter assay; assay type: functional, organism-based; details: Human immunodeficiency virus 1, HEK-293T
# [30] = test system: Human immunodeficiency virus 1; assay: Antiviral activity against HIV in plasma assessed log10 reduction of HIV RNA over 40 mg/kg, po measured after 11 days; assay type: functional; details: time 11 day
# [31] = Binding affinity to HIV1 wild type Gag assessed as dissociation constant; parameters: species or system Human immunodeficiency virus 1
# [32] = AUC in rat at 5 mg/kg, po; assay type: ADME, organism-based; parameters: dose 5 mg/kg, route po; details: in vivo, read-out: AUC
compound,measurement,setting,value
C=C(C)[C@@H]1CC[C@]2(NCCN3CCS(=O)(=O)CC3)CC[C@]3(C)[C@H](CC[C@@H]4[C@@]5(C)CC=C(C6=CC[C@@](CF)(C(=O)O)CC6)C(C)(C)[C@@H]5CC[C@]43C)[C@@H]12,T1/2,[1],5.73 h
C=C(C)[C@@H]1CC[C@]2(NCCN3CCS(=O)(=O)CC3)CC[C@]3(C)[C@H](CC[C@@H]4[C@@]5(C)CC=C(C6=CC[C@@](CF)(C(=O)O)CC6)C(C)(C)[C@@H]5CC[C@]43C)[C@@H]12.Cl.Cl,solubility,[2],310 µg/mL
same,solubility,[3],800 µg/mL
same,solubility,[4],< 1 µg/mL
C=C(C)[C@@H]1CC[C@]2(NCCN3CCS(=O)(=O)CC3)CC[C@]3(C)[C@H](CC[C@@H]4[C@@]5(C)CC=C(c6ccc(C(=O)O)cc6)C(C)(C)[C@@H]5CC[C@]43C)[C@@H]12 [BMS-955176],EC50,[5],5 nM
same,EC50,[6],10.2 nM
same,EC50,[7],6 nM
same,EC50,[8],> 3000 nM
same,EC50,[9],704 nM
same,CC50,[10],13000 nM
same,EC50,[11],2.8 nM
same,EC50,[12],66 nM
same,EC50,[13],9.1 nM
same,EC50,[14],11.1 nM
same,EC50,[15],1400 nM
same,half-life,[16],31.7 h
same,Vdss,[17],0.82 L/kg
same,Vdss,[18],1.1 L/kg
same,Vdss,[19],0.36 L/kg
same,Vdss,[20],0.43 L/kg
same,F,[21],9%
same,bioavailability,[22],4%
same,AUC(0-t),[23],21.6 µM·h
same,AUC(0-t),[24],14.2 µM·h
same,AUCt,[25],29.3 µM·h
same,AUC(0-t),[26],1 µM·h
same,Cmax,[27],600 nM
same,Cmax,[28],100 nM
same,EC50,[29],> 3000 nM
same,Activity,[30],>1 log10IU/ml
same,Kd,[31],1.4 nM
same,T1/2,[1],0.717 h
C=C(C)[C@@H]1CC[C@]2(NCCN3CCC(S(C)(=O)=O)CC3)CC[C@]3(C)[C@H](CC[C@@H]4[C@@]5(C)CC=C(C6=CCC(C(=O)O)(C(F)F)CC6)C(C)(C)[C@@H]5CC[C@]43C)[C@@H]12 (stereo partly specified),EC50,[5],1.9 nM
same,EC50,[6],12.7 nM
same,EC50,[7],1.3 nM
same,EC50,[8],2.5 nM
same,EC50,[9],6.6 nM
same,CC50,[10],11000 nM
same,AUC,[32],17.9 µM·h
C=C(C)[C@@H]1CC[C@]2(NCCN3CCC(S(C)(=O)=O)CC3)CC[C@]3(C)[C@H](CC[C@@H]4[C@@]5(C)CC=C(C6=CCC(CCCO)(C(=O)O)CC6)C(C)(C)[C@@H]5CC[C@]43C)[C@@H]12 (stereo partly specified),EC50,[5],2.6 nM
same,EC50,[6],16 nM
same,EC50,[7],2.9 nM
same,EC50,[8],3.2 nM
same,EC50,[9],7.9 nM
same,CC50,[10],12400 nM
same,AUC,[32],4.36 µM·h
